Source: patent US12692268B2 (priority 2020, dated 2026)
Like-named read-outs stand apart in the source and are kept apart here.

Legend:
JNK3 [1] = biological target: T1, JNK3 (Homo sapiens, UniProt P53779); assay: biochemical
JNK2 = JNK2 (Homo sapiens, UniProt P45984); assay: Kinase panel screening, single dose 10 μM; assay type: biochemical; details: single dose concentration of 10 μM; read-out: inhibitory activity for JNK2
JNK3 [2] = biological target: T1, JNK3; assay: Kinase panel screening, single dose 10 μM; assay type: biochemical; details: single dose concentration of 10 μM; read-out: inhibitory activity for JNK3
GSK-β = GSK-β (Homo sapiens, UniProt P49841); assay: Kinase panel screening, single dose 10 μM; assay type: biochemical; details: single dose concentration of 10 μM; read-out: inhibitory activity for GSK-β
RIPK3 = RIPK3 (Homo sapiens, UniProt Q9Y572); assay: Kinase panel screening, single dose 10 μM; assay type: biochemical; details: single dose concentration of 10 μM; read-out: inhibitory activity for RIPK3
RIPK3, sequence (Q9Y572 whole entry, species assumed): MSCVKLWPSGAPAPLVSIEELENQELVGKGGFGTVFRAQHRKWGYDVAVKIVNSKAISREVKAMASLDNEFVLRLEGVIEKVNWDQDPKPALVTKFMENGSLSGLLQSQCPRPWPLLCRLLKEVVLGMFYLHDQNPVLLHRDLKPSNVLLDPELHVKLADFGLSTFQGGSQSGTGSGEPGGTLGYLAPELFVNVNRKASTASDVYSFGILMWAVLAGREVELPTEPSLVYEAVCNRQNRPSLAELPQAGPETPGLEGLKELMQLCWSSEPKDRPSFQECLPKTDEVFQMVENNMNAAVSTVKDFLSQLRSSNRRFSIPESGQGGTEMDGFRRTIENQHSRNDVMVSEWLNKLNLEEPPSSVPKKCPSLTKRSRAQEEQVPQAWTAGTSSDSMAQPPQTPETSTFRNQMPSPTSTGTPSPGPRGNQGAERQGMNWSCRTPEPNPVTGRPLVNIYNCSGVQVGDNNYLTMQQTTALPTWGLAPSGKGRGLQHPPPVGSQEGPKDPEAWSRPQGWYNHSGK

T1 sequence (P53779 whole entry): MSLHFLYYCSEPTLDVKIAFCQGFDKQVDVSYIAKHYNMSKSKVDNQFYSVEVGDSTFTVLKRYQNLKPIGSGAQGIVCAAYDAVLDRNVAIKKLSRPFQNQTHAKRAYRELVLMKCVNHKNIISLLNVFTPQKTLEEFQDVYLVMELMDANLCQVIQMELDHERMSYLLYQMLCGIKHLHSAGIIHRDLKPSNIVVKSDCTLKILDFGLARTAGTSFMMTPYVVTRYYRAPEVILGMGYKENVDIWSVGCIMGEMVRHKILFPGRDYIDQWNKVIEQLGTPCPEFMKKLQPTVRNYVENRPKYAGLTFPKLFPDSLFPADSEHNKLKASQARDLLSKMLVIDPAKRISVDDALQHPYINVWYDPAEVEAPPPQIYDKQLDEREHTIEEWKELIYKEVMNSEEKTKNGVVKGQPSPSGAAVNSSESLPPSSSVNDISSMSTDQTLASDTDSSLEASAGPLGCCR
JNK2, sequence (P45984 whole entry, species assumed): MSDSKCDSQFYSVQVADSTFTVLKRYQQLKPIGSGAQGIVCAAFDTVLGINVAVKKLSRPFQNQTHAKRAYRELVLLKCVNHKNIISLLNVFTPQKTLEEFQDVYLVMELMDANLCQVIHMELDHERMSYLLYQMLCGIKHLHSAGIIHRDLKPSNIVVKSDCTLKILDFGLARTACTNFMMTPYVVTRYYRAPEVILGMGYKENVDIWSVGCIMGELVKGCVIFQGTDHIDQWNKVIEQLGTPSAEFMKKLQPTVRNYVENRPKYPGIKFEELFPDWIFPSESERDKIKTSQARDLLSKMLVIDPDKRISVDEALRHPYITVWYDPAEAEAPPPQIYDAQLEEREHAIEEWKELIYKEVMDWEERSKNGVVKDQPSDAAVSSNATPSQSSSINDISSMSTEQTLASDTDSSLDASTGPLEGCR
GSK-β, sequence (P49841 whole entry): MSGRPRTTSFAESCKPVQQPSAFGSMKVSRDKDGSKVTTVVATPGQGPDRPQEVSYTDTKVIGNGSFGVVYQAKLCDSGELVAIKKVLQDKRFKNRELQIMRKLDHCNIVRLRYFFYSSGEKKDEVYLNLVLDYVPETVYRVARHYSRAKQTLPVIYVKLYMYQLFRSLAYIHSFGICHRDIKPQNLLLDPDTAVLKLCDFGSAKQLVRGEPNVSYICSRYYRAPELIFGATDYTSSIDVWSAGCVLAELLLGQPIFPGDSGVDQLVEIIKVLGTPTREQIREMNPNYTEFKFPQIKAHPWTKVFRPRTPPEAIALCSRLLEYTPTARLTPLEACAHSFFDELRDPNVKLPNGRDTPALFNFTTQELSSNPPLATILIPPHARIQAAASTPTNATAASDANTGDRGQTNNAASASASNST

## O=C(C1CC1)N1CCC[C@H](Nc2nccc(-n3c(-c4ccc(Cl)c(Cl)c4)nc4c3CN(C(=O)N3CCC(O)CC3)C4)n2)C1 [Compound 16a, (S)-(1-(2-((1-(cyclopropanecarbonyl)piperidin-3-yl)amino)pyrimidin-4-yl)-2-(3,4-dichlorophenyl)-4,6-dihydropyrrolo[3,4-d]imidazol-5(1H)-yl)(4-hydroxypiperidin-1-yl)methanone]
JNK3 [1]
  IC50: < 30 nM

## NC(=O)N1Cc2nc(-c3ccc(Cl)c(Cl)c3)n(-c3ccnc(N[C@H]4CCCN(C(=O)C5CC5)C4)n3)c2C1 [Compound 16b, (S)-1-(2-((1-(cyclopropanecarbonyl)piperidin-3-yl)amino)pyrimidin-4-yl)-2-(3,4-dichlorophenyl)-4,6-dihydropyrrolo[3,4-d]imidazole-5(1H)-carboxamide]
JNK3 [1]; JNK3 enzyme activity, Table 1, read-out: IC50
  IC50: < 30 nM

## NC(=O)N1Cc2nc(-c3ccc(Cl)c(Cl)c3)n(-c3ccnc(N[C@@H]4CCN(C(=O)C5CC5)C4)n3)c2C1 [Compound 16c, (R)-1-(2-((1-(cyclopropanecarbonyl)pyrrolidin-3-yl)amino)pyrimidin-4-yl)-2-(3,4-dichlorophenyl)-4,6-dihydropyrrolo[3,4-d]imidazole-5(1H)-carboxamide]
JNK2
  inhibition at 10 µM: 100%
JNK3 [2]
  inhibition at 10 µM: 100%
GSK-β
  inhibition at 10 µM: 70%
RIPK3
  inhibition at 10 µM: 50%

## NC(=O)N1Cc2nc(-c3ccc4c(c3)OCO4)n(-c3ccnc(N[C@H]4CCCN(C(=O)C5CCC5)C4)n3)c2C1 [Compound 16m, (S)-2-(benzo[d][1,3]dioxol-5-yl)-1-(2-((1-(cyclobutanecarbonyl)piperidin-3-yl)amino)pyrimidin-4-yl)-4,6-dihydropyrrolo[3,4-d]imidazole-5(1H)-carboxamide]
JNK3 [1]; JNK3 enzyme activity, Table 2, read-out: IC50
  IC50: 100 to 10000 nM
